Data from ChEMBL document CHEMBL1165932, “Inhibition of Mycobacterium tuberculosis tyrosine phosphatase PtpA by synthetic chalcones: kinetics, molecular modeling, toxicity and effect on growth” (Bioorg Med Chem, 2010).

Legend:
[1] = test system: Mycobacterium tuberculosis; experiment: Antibacterial activity against Mycobacterium bovis BCG infected in human THP1 cells assessed as viral infection at 10 uM after 24 hrs relative to control; assay type: functional, variant bovis BCG, THP-1
[2] = test system: Mycobacterium tuberculosis; experiment: Antibacterial activity against Mycobacterium bovis BCG infected in human THP1 cells assessed as viral infection at 20 uM after 48 hrs relative to control; assay type: functional, variant bovis BCG, THP-1

Row | SMILES | Activity [1] | Activity [2]
1 | COc1ccc(OC)c(C(=O)/C=C/c2cccc3ccccc23)c1 | 108.6% | 46.3%
2 | COc1ccc(C(=O)/C=C/c2ccc3ccccc3c2)cc1OC | 63.8% | 32.9%
3 | COc1ccc(OC)c(C(=O)/C=C/c2ccc3ccccc3c2)c1 | 117.7% | 234.9%
4 | O=C(/C=C/c1cccc2ccccc12)c1ccccc1O | 180.8% | 71.3%
5 | COc1cc(C(=O)/C=C/c2ccc3ccccc3c2)ccc1O | 72.9% | 8.5%
